Measurements as given in PMC4807051, “Determinants of Cofactor Specificity for the Glucose-6-Phosphate Dehydrogenase from Escherichia coli: Simulation, Kinetics and Evolutionary Studies” (PLoS ONE, 2016).

What was measured:
[1] = target: T1, EcG6PDH; glucose-6-phosphate dehydrogenase from Escherichia coli (Escherichia coli, UniProt P0AC53, K18A); experiment: NAD(P)H formation at […] nm, Michaelis-Menten fit; format: biochemical; conditions: co-substrate NADP+ at 10 times its KM; 25°C
T1 construct: gene zwf; full length; N-terminal 6xHis tag cut by TEV protease (Gly-His left before Met1); plasmid pET-TEV-EcG6PDH from pETG6PDH

[2] = target: T2, EcG6PDH; glucose-6-phosphate dehydrogenase from Escherichia coli (Escherichia coli, UniProt P0AC53, R50A); experiment: NAD(P)H formation at […] nm, Michaelis-Menten fit; format: biochemical; conditions: co-substrate NADP+ at 10 times its KM; 25°C
T2 construct: gene zwf; full length; N-terminal 6xHis tag cut by TEV protease (Gly-His left before Met1); plasmid pET-TEV-EcG6PDH from pETG6PDH

## O=P(O)(O)OC[C@H]1OC(O)[C@H](O)[C@@H](O)[C@@H]1O (some centres unmarked) [G6P]
[1]
  apparent KM: we determined the effect of the mutations on the apparent kinetic parameters for G6P
[2]
  apparent KM: we determined the effect of the mutations on the apparent kinetic parameters for G6P
